The source of these data is paper PMC11315827 (Drugs in R&D, 2024).

Broadly, the Cmax is the highest concentration seen after dosing. The term IC50 denotes the concentration that inhibits the measured activity by half. Broadly, the half-life is the time in which the quantity being followed falls by half. Low values mean rapid decline, high ones slow decline.

“And” between values parts separate entries of the source, which are not always exact repeats. Equal values may be shown once.

Data set [1] is described as follows: Nonhuman primate PK study, plasma and CSF. To be noted: for unbound partition coefficient Kp,uu CSF: based on plasma free fractions; for Cmax / half-life: male, cynomolgus monkey, in vivo, po; for Cmax: plasma Cmax.
Data set [2] addresses BTK (Homo sapiens, UniProt Q06187). To be noted: "reported as"; cited from earlier work.
For data set [3], the system named is Ramos cell expression of CD69 (BTK signaling). The experiment in a line: cells. To be noted: Homo sapiens, 18 h, read-out: apparent IC50 (CD69 expression).
Data set [4] addresses T1, BMX (Homo sapiens, UniProt P51813).
T1 sequence (P51813 1-675): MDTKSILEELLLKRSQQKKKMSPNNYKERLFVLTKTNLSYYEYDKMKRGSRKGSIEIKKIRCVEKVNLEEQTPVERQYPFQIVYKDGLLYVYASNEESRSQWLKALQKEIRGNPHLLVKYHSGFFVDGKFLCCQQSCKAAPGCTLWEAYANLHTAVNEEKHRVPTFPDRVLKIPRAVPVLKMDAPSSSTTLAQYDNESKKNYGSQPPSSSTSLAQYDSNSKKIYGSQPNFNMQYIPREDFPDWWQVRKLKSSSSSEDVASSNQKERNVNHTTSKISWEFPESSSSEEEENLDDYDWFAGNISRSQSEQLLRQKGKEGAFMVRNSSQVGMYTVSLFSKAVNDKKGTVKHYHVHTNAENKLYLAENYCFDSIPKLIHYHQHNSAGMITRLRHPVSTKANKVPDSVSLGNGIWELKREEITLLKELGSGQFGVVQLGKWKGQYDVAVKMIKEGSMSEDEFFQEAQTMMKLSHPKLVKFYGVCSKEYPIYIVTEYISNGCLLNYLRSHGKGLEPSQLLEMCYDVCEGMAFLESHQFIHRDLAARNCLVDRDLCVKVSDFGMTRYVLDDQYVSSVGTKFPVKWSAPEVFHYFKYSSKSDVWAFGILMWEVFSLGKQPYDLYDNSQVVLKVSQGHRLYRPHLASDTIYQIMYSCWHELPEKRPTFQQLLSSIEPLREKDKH
Put plainly: Kinase screening assays.

Data set [5] deals with T2, TXK (Homo sapiens, UniProt P42681).
T2 sequence (P42681 1-527): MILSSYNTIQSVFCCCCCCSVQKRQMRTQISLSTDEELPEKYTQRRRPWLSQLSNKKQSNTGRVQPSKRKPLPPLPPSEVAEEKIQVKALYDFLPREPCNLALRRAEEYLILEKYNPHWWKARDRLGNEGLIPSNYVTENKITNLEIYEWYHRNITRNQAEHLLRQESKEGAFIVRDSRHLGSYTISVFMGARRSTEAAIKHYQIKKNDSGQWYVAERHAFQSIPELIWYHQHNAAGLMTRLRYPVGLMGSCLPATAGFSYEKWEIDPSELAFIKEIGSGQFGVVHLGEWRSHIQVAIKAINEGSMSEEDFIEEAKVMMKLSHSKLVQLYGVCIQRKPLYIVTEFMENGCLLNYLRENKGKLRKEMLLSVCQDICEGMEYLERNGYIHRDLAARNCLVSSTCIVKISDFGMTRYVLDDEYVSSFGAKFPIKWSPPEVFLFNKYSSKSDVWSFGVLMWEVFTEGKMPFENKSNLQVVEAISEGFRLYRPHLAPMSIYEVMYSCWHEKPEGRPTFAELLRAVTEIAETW
Put plainly: Kinase screening assays.

For data set [6], the target named is BLK (Homo sapiens, UniProt P51451). Put plainly: Kinase screening assays.
Sequence of BLK (P51451 whole entry, species assumed): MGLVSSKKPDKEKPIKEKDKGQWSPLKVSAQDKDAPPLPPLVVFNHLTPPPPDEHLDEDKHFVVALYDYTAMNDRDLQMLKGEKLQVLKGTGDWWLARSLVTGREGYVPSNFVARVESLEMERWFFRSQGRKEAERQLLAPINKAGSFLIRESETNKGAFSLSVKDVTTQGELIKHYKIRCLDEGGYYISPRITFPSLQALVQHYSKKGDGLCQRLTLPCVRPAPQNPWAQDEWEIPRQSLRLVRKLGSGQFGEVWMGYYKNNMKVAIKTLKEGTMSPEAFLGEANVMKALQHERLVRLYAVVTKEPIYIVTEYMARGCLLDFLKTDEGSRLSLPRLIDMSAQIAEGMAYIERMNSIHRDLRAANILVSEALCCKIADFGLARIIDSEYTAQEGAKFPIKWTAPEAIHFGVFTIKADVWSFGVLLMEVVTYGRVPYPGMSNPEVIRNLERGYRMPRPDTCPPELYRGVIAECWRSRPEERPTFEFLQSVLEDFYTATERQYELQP

Sequence of BTK (Q06187 whole entry): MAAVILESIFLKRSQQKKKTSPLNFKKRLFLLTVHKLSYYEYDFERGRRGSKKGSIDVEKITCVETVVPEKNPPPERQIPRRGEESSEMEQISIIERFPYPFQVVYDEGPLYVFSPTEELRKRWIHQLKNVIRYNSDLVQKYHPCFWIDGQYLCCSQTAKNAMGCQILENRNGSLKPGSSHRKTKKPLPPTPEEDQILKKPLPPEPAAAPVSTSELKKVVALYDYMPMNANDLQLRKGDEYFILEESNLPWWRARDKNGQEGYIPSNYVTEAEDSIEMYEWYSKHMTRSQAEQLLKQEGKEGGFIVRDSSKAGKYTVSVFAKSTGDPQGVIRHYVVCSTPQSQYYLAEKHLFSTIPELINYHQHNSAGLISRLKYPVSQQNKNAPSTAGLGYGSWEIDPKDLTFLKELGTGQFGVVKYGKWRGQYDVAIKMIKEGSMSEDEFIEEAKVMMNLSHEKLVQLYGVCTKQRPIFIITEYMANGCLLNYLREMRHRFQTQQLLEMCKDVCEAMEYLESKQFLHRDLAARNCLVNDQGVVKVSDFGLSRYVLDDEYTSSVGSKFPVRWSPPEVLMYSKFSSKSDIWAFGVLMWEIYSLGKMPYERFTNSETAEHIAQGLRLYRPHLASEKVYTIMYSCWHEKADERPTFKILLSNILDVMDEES

On to `C[C@H]1CN(C2COC2)CCN1c1ccc(Nc2cc(-c3ccnc(N4CCn5c(cc6c5CC(C)(C)C6)C4=O)c3CO)cn(C)c2=O)nc1` [Fenebrutinib], for which, in data set [1], the “unbound partition coefficient Kp,uu CSF” value is 0.147. The Cmax in data set [1] (10 mg/kg, oral 10 mg/kg) is 553 ng/mL and 853 nM. In data set [1] (plasma, oral 10 mg/kg), the “terminal t1/2 for elimination” value is reported as “slightly prolonged”. The dissociation rate in data set [2] is 1.52e-05 s⁻¹. Also, the IC50 in data set [3] is 19.8 nM.
Regarding `C=CC(=O)N1CCC(CNc2ncnc(N)c2-c2ccc(Oc3ccccc3)cc2)CC1` [Evobrutinib], the “unbound partition coefficient Kp,uu CSF” value in data set [1] turned out to be 0.131. For the same compound, in data set [1] (10 mg/kg), the half-life is ~240 min. Moreover, the highest concentration (Cmax) in data set [1] (10 mg/kg, oral 10 mg/kg) was 287 ng/mL and 669 nM.
With `C=CC(=O)N1CCC[C@@H](n2c(=O)n(-c3ccc(Oc4ccccc4)cc3)c3c(N)nccc32)C1` [Tolebrutinib], the “CSF Cmax” value in data set [1] (CSF, oral 10 mg/kg) stood at 9.6 nM. For the same compound, the “CSF exposure (Cmax)” value in data set [1] (CSF, oral 10 mg/kg, 10 mg/kg) turned out to be 4.4 ng/mL. Further, in data set [1], the “unbound partition coefficient Kp,uu CSF” value is recorded as 0.397. Moreover, in data set [1] (10 mg/kg), the half-life is ~240 min. The highest concentration (Cmax) in data set [1] (10 mg/kg, oral 10 mg/kg) was 103 ng/mL and 226 nM. Besides, the half-inhibitory concentration (IC50) in data set [4], in data set [5] and in data set [6] was ≤ 4 nM each time.
